# Experimental data published in patent US8445428B2, “Plant derived antibiotic peptide rich in glycine” (Uniao Brasiliense de Educacao e Cultura—UBEC, priority 2006, dated 2013).
# Columns and labels:
# Assay type in all cases: cell-based
# Proteus sp. = experiment: Bioassay against bacteria: growth in LB medium, absorbance at 600 nm; conditions: micromolar concentrations, 37° C. for 4 hours
# Description: (§1) The bioassays against bacteria were performed using 1.0 ml of Luria Bertani medium (NaCl 10 g.l^−1, yeast extract 5 g.l^−1 and bactopeptone […]). Two species, namely Klebsiella sp. and Proteus sp., were used, with the protein under test was restricted to micromolar concentrations. The bacteria grew in the LB medium during 16-18 hours at 37° C. before being evaluated with the proteins. Distilled water was used as negative control and chloramphenicol 40 μg.ml^−1 as positive control. Protein from guava seeds was incubated against the bacteria at 37° C. for 4 hours. Bacterial growth was assessed by an absorbance reading at 600 nm at each hour of the experiment. Each experiment was performed in triplicate.
# Klebsiella sp. = experiment: as above; conditions: micromolar concentrations, 37° C. for 4 hours
# Description: as §1
# Staphylococcus aureus = experiment: Preliminary bioassays against gram-positive bacteria; conditions: such as Staphylococcus aureus
sequence,measurement,setting,value
"RESPSSRMECYEQAERYGYGGYGGGRYGGGYGSGRGQPVGQGVERSHDDNRNQPR (SEQ ID NO: 1) (RESPSSRMECYEQAERYGYGGYGGGRYGGGYGSGRGQPVGQGVERSHDDNRNQPR; listed as Psidium guajava) [Pg-AMP1, glycine rich anti-microbial peptide of 55 amino acids, about 5 kDa, purified from guava (Psidium guajava) seeds]",inhibitory activity,Proteus sp.,30%
same,inhibitory activity,Klebsiella sp.,90%
same,inhibitory activity,Staphylococcus aureus,did not reveal any inhibitory activity
